Data set [1] relates to NIH 3T3 fibroblasts transfected with α1B ADR. Kind of data set: Focus formation in NIH 3T3 fibroblasts transfected with α1B-ADR c-DNA. It counts as cell-based. The following applies: NIH 3T3 transfected with α1B ADR; 10 μM NE supplemented daily, 5% FBS (Table 1).
In data set [2] the test system is NIH 3T3 fibroblasts transfected with expression vector alone. Nature of the data set: Focus formation in NIH 3T3 fibroblasts transfected with expression vector alone. It counts as cell-based. The settings on record: NIH 3T3 transfected with vector alone; 10 μM NE supplemented daily, 5% FBS (Table 1).
The next data set deals with T1, α1B ADR (Mesocricetus auratus, UniProt P18841).
T1 construct: expressed in transfected cells; host or cells: RAT-1 fibroblasts (vector pZIP-NeoSV(X)1), focus-derived, G418-selected lines
T1 sequence (P18841 1-515): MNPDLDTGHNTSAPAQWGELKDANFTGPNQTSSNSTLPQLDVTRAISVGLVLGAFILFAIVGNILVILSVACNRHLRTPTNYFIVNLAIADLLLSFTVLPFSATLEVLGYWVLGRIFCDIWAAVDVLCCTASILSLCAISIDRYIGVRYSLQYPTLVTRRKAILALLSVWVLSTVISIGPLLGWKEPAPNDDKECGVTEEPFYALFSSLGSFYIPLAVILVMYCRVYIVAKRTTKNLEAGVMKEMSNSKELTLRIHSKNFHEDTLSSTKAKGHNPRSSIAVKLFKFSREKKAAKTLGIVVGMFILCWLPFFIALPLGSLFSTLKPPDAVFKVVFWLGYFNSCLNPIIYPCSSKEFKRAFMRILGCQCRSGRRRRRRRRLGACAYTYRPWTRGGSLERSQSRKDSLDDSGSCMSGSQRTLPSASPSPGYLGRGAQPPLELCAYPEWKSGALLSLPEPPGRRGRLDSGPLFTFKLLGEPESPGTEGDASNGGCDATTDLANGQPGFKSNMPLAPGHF
Nature of the data set: NE stimulated PI hydrolysis in RAT-1 cell lines expressing the α1B ADR. It counts as cell-based, hamster. Here is the method: (§1) In Table 3, RAT-1 fibroblast cell lines transfected with expression vector alone or derived from transformed foci (α1B ADR or α1B ADR mutant) were selected with G418 (300 μg/ml). Ligand binding was performed on membranes prepared from two clones of each in accordance with known techniques (S. Cotecchia et al., Life Sci. 37, 2389 (1986)). For saturation binding analysis, [^125 ] HEAT concentrations ranged from 10 to 500 pM, nonspecific binding was determined using 1 μM prazosin; in competition experiments, the radioligand concentration was 100 pM. Ligand binding parameters were determined using computerized iterative nonlinear regression analysis (P. Munson, Methods in Enzymol. 92, 5432 (1983)). For assessment of receptor coupling to PI hydrolysis, cells were plated in 30 mm dishes, and labeled overnight with 3 μCi/ml of myo-[2-^3 II(N)]-inositol (1Ci=37 GBq; NEN Research Products) in DMEM containing 3.3% FBS in accordance with known techniques (S. Cotecchia et al., Proc. Natl. Acad. Sci. USA 87, 2896 (1990)). After 40 minute stimulation of cells with 10 μM norepinephrine (NE), inositol phosphates were extracted, and separated on AG 1-X8 anion exchange columns (BioRad Labs) in accordance with known techniques (S. Cotecchia et al., Proc. Natl. Acad. Sci. USA 87, 2896 (1990)). Total inositol phosphates were eluted with 1M ammonium formate/0.1M formic acid. […]

The target in another data set is T2, α1B ADR mutant (Mesocricetus auratus, UniProt P18841, A293L/K290H/R288K).
T2 construct: expressed in transfected cells; host or cells: RAT-1 fibroblasts (vector pZIP-NeoSV(X)1), focus-derived, G418-selected lines
T2 sequence (P18841 1-515 R288K/K290H/A293L): T1 sequence (P18841 1-515) with R288K, K290H, A293L
Nature of the data set: NE stimulated PI hydrolysis in RAT-1 cell lines expressing the α1B ADR mutant. It counts as cell-based, hamster. Here is the method:
as §1

Data set [3] concerns RAT-1 fibroblast cell line derived from a single transformed focus expressing the α1B -ADR. Nature of the data set: Morphology of focus-derived RAT-1 fibroblast cell line expressing the α1B-ADR. It counts as cell-based. The following applies: 10 μM NE, 36 hours, 5% FBS.
For another data set, the system named is α1B -ADR. The settings on record: NE alone, serum free medium; data not shown.
The mark [4] stands for this setting: 10 μM NE, 40 minute, increase of total labeled inositol phosphates over basal, two clones.

We go through one compound from patent US5573908A, “Adrenergic receptor as a proto-oncogene” (Duke University, priority 1993, dated 1996).

Substitutions are numbered along the chain they refer to. Values joined by “and” are separate entries in the source; they are usually repeats but may differ in a detail not shown here. Equal entries are not always repeated. “Also recorded” adds a separate entry of the source.

Turning to `NC[C@H](O)c1ccc(O)c(O)c1` [NE, norepinephrine], the “Foci No. +NE” value in data set [1] turned out to be 85; in data set [2], 12. The “NE Stimulated PI Hydrolysis Rmax” value on α1B ADR (setting [4]) was 758 % increase and 410 % increase; at α1B ADR mutant (setting [4]) it was 861 % increase and 954 % increase. At α1B ADR (focus-derived fibroblasts expressing α1B-ADR), the “increase in total inositol phosphates following NE stimulation” value was in the range of 400 to 800%. Further, at α1B ADR mutant (cell lines expressing the α1B-ADR mutant), the “increase in inositol phosphates induced by NE” value was 900 to 1000%. Also, the “cellular morphology / phenotype in the presence of agonist” value in data set [3] was “reverted to the transformed phenotype; also recorded: agonist-dependent alteration in cellular morphology with a loss in cellular orientation and decreased adhesiveness”. Besides, the “increase in DNA synthetic activity” value in the data set on α1B -ADR was found to be 11 fold.
